Test results: patent US9351986B2, “Calicheamicin derivative-carrier conjugates” (priority 2002, dated 2016)
Where two headings read alike, the source gives them in different places.

Key:
[1] = system: RL NHL xenografts; assay: RL NHL xenografts staged to 300-400 mg in nude mice; format: in vivo; conditions: 160 μg/kg intraperitoneally
Description: Similar studies were carried out using the RL lymphoma model. […] CMC-544 in a dose-dependent manner caused tumors to regress over a 3-week time frame. The minimally effective dose of CMC-544 in the RL lymphoma model was established from statistical analyses of these studies to be 20 μg/kg based on calicheamicin content. There were no deaths in any of these three studies.
The observed anti-tumor efficacy was dose-dependent as expected and there was no difference in the efficacies of either of the two CMC-544 preparations. […] However, it should be emphasized that for each dose of conjugated calicheamicin, the quantity of antibody protein administered in the form of a conjugate was four times higher for CMC-544 made by the CMA-676 process versus that made by the CMC-544 process. Since the calicheamicin content of the targeted conjugate is primarily responsible for causing the anti-tumor effect, it is possible to deliver the required quantity of calicheamicin via the conjugate made by the new procedure using much smaller quantities of the targeting antibody. The increased loading of the conjugate made by the CMC-544 process is, in effect, due to the lack of significant amounts of the low conjugated fraction (LCF).

[2] = system: RL; assay: In vitro growth inhibition of RL B-cell lymphoma line; format: cell-based; conditions: for IC50: read-out: IC50 of calicheamicin
From the text: (§1) The effect of CMC-544 made by using CMA-676 and CMC-544 processes on the in vitro growth of CD22^+ B-Cell lymphoma cell lines, RL, Daudi, Raji and Ramos, were compared. An isotype-matched calicheamicin conjugate targeted at human CD33 (CMA-676) was used to reflect antigen-non-specific effects of the conjugate. […] CD22-mediated delivery of calicheamicin to the CD22^+ cells was at least 10 times more efficient in killing the target cells than the unconjugated drug itself. […] It is apparent from Table 4 that conjugate made by the CMC-544 conjugation process can generate equivalent cytotoxic effect at lower antibody concentrations than conjugate made by the CMA-676 conjugation process.

[3] = system: Ramos; assay: In vitro growth inhibition of Ramos B-cell lymphoma line; format: cell-based, human; conditions: for IC50: read-out: IC50 of calicheamicin
From the text: as §1

[4] = system: Raji; assay: In vitro growth inhibition of Raji B-cell lymphoma line; format: cell-based; conditions: for IC50: read-out: IC50 of calicheamicin
From the text: as §1

[5] = system: Daudi; assay: In vitro growth inhibition of Daudi B-cell lymphoma line; format: cell-based; conditions: Daudi #1; for IC50: read-out: IC50 of calicheamicin
From the text: as §1

[6] = system: Ramos cells; assay: Disseminated RAMOS B lymphoma in SCID mice, established model; format: in vivo
Description: (§2) Male SCID mice (CB17 SCID), 20-25 g, were injected with […] through the tail vein (0.2 ml). […] For the day 3 treatment schedule, mice were dosed on days 3, 7, and 11. For the day 9 treatment schedule, mice were dosed on days 9, 13 and 17. […] Mice were monitored daily for the presence of hind limb paralysis at which time they were killed. Seven to 10 mice per treatment group were used. The group average survival time (±SD), median, minimum, and maximum survival times were all calculated. The difference in survival distribution between groups was determined by using a nonparametric Log-rank test with significance reported at the 0.05 level. The survival curves were constructed using the Kaplan-Meier method.
The initial study examined the effect of two different dosing schedules on survival times of the SCID mice with the disseminated lymphoma. The first study looked at initiating drug dosing 3 days after the tumor cells were injected intravenously (developing model), while the second study delayed drug dosing until 9 days post tumor cell injection (established model). […]

[7] = system: Ramos cells; assay: Disseminated RAMOS B lymphoma in SCID mice, developing model; format: in vivo
Description: as §2
The initial study examined the effect of two different dosing schedules on survival times of the SCID mice with the disseminated lymphoma. The first study looked at initiating drug dosing 3 days after the tumor cells were injected intravenously (developing model), while the second study delayed drug dosing until 9 days post tumor cell injection (established model).

[8] = system: large RAMOS lymphoma; assay: Large established RAMOS lymphoma xenografts; format: in vivo, nude mice; conditions: 160 μg/kg ip, days 1, 5 and 9
Description: The ability of CMC-544 made by the new procedure to inhibit growth of large established B-cell lymphoma xenografts using both the RAMOS and RL lymphoma models was also investigated. The tumors were allowed to grow and staged to 1.5 or 2 g of tumor mass after which CMC-544 or an isotype-matched negative control conjugate (CMA-676) were administered intraperitoneally at the dose of 160 μg/kg of conjugated calicheamicin keeping the original schedule of dosing on days 1, 5 and 9.
The same schedule of dosing was shown earlier to cause long lasting regression of small staged tumors (see Table 6).

[9] = system: CD22mFc; assay: BIACORE biosensor binding analysis of CMC-544 and G5/44; conditions: Table 3
Description: Biosensor analyses were carried out using a BIACORE™ 2000 (BIAcore AB, Uppsala, Sweden). CD22mFc was covalently immobilized on the N-hydroxysuccinimide-activated carboxymethyl dextran-coated biosensor chip (CM5) using a standard amine-coupling chemistry at a protein density of approximately 2000 resonance units. Samples of CMC-544 or G5/44 were diluted in the HBS buffer (10 mM HEPES, pH 7.4, containing 150 mM NaCl, 3 mM EDTA and 0.005% polysorbate 20 (v/v)) and injected in the concentration range of 1 to 100 nM over the CD22mFc-coated biosensor chip surface at a flow rate of 30 μl/min for 3 min to allow binding. After the binding phase, dissociation of the bound antibody was monitored by washing the chip with the HBS buffer over a 15 minute period. The antigenic surface was regenerated by washing the Biosensor chip with 15 μl of the regeneration buffer (10 mM NaOH and 200 mM NaCl) for 30 seconds, followed by a stabilization time of 2 minutes before the next cycle. Kinetic constants were calculated by nonlinear least square regression analysis using a 1:1 Langmuir binding curve fitting model and BIAevaluation program (version 3.0, BIAcore). The antigen binding of CMC-544 was evaluated by surface plasmon resonance analysis using CD22mFc covalently immobilized on a biosensor chip.

[10] = system: CD22− CD33+ HL-60 leukemia cells; assay: Flow cytometry binding to HL-60 leukemia cells; conditions: data not shown
From the text: Purified human polyclonal IgG1 and IgG4 were also used as negative controls.

[11] = system: RAMOS B-cell lymphoma; assay: RAMOS B-cell lymphoma xenograft growth; format: in vivo; conditions: 10 mg/kg intraperitoneal, subcutaneous xenografts
From the text: In Vivo Cytotoxicity. CMC-544 made by the CMC-544 process was further evaluated in B-cell lymphoma xenografts. In these studies, two B-cell lymphoma tumors, RAMOS and RL, were used. RL lymphoma is a non-Burkitt's NHL-derived cell line whereas RAMOS was originally derived from a Burkitt's lymphoma.

[12] = system: CD22-mFc; assay: BIACORE affinity of chimeric 5/44 and its variants; format: binding; conditions: CDR-H2 mutants of chimeric 5/44
Description: The activities of the chimeric genes were evaluated following transient transfection into CHO cells and determination of affinity constants by BIACORE™ analysis.
The affinities of chimeric 5/44 or its variants, which have had their glycosylation site or their reactive lysine removed, were investigated using BIA technology for binding to CD22-mFc constructs. All binding measurements were performed in the BIACORE™ 2000 instrument (Pharmacia Biosensor AB, Uppsala, Sweden). The assay was performed by capture of CD22mFc via the immobilized anti-mouse Fc. The antibody was in the soluble phase. Samples, standard, and controls (50 μl) were injected over immobilized anti-mouse Fc followed by antibody in the soluble phase. After each cycle, the surface was regenerated with 50 μl of 40 mM HCl at 30 μl/min. The kinetic analysis was performed using the BIAevaluation 3.1 software (Pharmacia).

[13] = molecular target: T1, cell surface CD22 (Homo sapiens, UniProt P20273); assay: Competition assay against mouse 5/44 antibody for binding to Ramos cells; conditions: grafted variants expressed in CHO cells
T1 construct: host or cells: Ramos (Burkitt's lymphoma)
From the text: The vectors encoding grafted variants were co-transfected into CHO cells in a variety of combinations, together with the original chimeric antibody chains. Binding activity was compared in a competition assay, competing the binding of the original mouse 5/44 antibody for binding to Ramos cells (obtained from ATCC, a Burkitt's lymphoma lymphoblast human cell line expressing surface CD22). This assay was considered the best way to compare the grafts in their ability to bind to cell surface CD22.

[14] = Table 8, conjugates 160 μg/kg, rituximab 20 mg/kg ip Q4Dx3 from day 9
[15] = Table 8, conjugates 160 μg/kg, rituximab 20 mg/kg ip Q4Dx3 from day 3

Molecule: CCN(C(C)=O)[C@H]1CO[C@@H](O[C@H]2[C@H](O[C@H]3C#C/C=C\C#C[C@]4(O)CC(=O)C(NC(=O)OC)=C3/C4=C\CSSC(C)(C)CC(=O)NN)O[C@H](C)[C@@H](NO[C@H]3C[C@H](O)[C@H](SC(=O)c4c(C)c(I)c(O[C@@H]5O[C@@H](C)[C@H](O)[C@@H](OC)[C@H]5O)c(OC)c4OC)[C@@H](C)O3)[C@@H]2O)C[C@@H]1OC [N-ACETYL GAMMA CALICHEAMICIN DMH, N-Ac gamma calicheamicin DMH, reference compound]
- anti-tumor activity of unconjugated drug [1]: inactive
- IC50 ([2]; RL #1): 0.226 nM
- IC50 ([2]; RL #2): 0.27 nM
- IC50 ([3]; Ramos #1): 0.7 nM
- IC50 ([3]; Ramos #2): 1 nM
- IC50 ([4]; Raji #1): 0.46 nM
- IC50 ([4]; Raji #2): 0.49 nM
- IC50 [5]: 0.26 nM

Molecule: CMA-676: isotype-matched control conjugate of hP67.6 (IgG4, anti-CD33) with AcBut linked calicheamicin [reference compound]
- effect on survival times ([6]; 160 μg/kg ip Q4Dx3): no significant effect on survival times
- Average Survival Time [6, 14]: 33.7 days
- Maximum Survival Time [6, 14]: 42.0 days
- Median Survival Time [6, 14]: 31.0 days
- Minimum Survival Time [6, 14]: 30.0 days
- effect on survival time ([7]; 160 μg/kg ip Q4Dx3, p>0.05): did not increase survival time significantly
- Average Survival Time [7, 15]: 32.9 days
- Maximum Survival Time [7, 15]: 36.0 days
- Median Survival Time [7, 15]: 34.0 days
- Minimum Survival Time [7, 15]: 28.0 days
- IC50 of antibody ([2]; RL #1): 17.14 µg/mL
- IC50 ([2]; RL #1): 0.6 nM
- IC50 of antibody ([2]; RL #2): 11.43 µg/mL
- IC50 ([2]; RL #2): 0.4 nM
- effect on tumor growth [8]: no effect on the tumor growth
- mice sacrificed before day 15 because of tumor burden [8]: Four out of five
- IC50 of antibody ([4]; Raji #1): 80.00 µg/mL
- IC50 ([4]; Raji #1): 2.8 nM
- IC50 of antibody ([4]; Raji #2): 117.14 µg/mL
- IC50 ([4]; Raji #2): 4.1 nM
- IC50 of antibody [5]: 53.89 µg/mL
- IC50 [5]: 1.89 nM

Molecule: CMC-544 (21 μg/mg) (CMA-676 procedure)
- KA [9]: 8.1e+09 M⁻¹
- Ka [9]: 490000 M⁻¹ s⁻¹
- Kd [9]: 6.1e-05 s⁻¹

Molecule: CMC-544 (87 μg/mg) (CMA-544 procedure)
- KA [9]: 6.6e+09 M⁻¹
- Ka [9]: 460000 M⁻¹ s⁻¹
- Kd [9]: 6.9e-05 s⁻¹

Molecule: CMC-544 PROCESS CMC-544 LOADING 65 μg/mg: CMC-544 made by the CMC-544 conjugation process
- IC50 ([2]; RL #1): 0.006 nM
- IC50 ([2]; RL #2): 0.012 nM
- IC50 ([3]; Ramos #2): 0.26 nM
- IC50 ([4]; Raji #1): 0.5 nM
- IC50 ([4]; Raji #2): 0.56 nM
- IC50 [5]: 0.021 nM

Molecule: CMC-676 PROCESS CMC-544 LOADING 35 μg/mg: CMC-544 made by the CMA-676 conjugation process
- IC50 ([2]; RL #1): 0.03 nM
- IC50 ([2]; RL #2): 0.04 nM
- IC50 ([4]; Raji #2): 0.52 nM
- IC50 [5]: 0.08 nM

Molecule: G5/44: CDR-grafted humanized antibody directed against cell surface antigen CD22, IgG4 isotype
- KA [9]: 7.9e+09 M⁻¹
- Ka [9]: 220000 M⁻¹ s⁻¹
- Kd [9]: 2.8e-05 s⁻¹
- binding to HL-60 leukemia cells [10]: neither CMC-544 nor G5/44 demonstrated any binding
- IC50 of antibody ([2]; RL #1): >100 µg/mL
- IC50 of antibody ([2]; RL #2): >100 µg/mL
- IC50 of antibody ([3]; Ramos #1): >100 µg/mL
- IC50 of antibody ([3]; Ramos #2): >100 µg/mL
- effect of unconjugated antibody on tumor growth [11]: no effect on tumor growth
- IC50 of antibody ([4]; Raji #1): >100 µg/mL
- IC50 of antibody ([4]; Raji #2): >100 µg/mL
- IC50 of antibody [5]: >100 µg/mL

Molecule: K60R: chimeric 5/44 with CDR-H2 mutation K60R removing the reactive lysine
- effect of the mutation on affinity [12]: neutral effect on affinity

Molecule: N55Q: chimeric 5/44 with CDR-H2 mutation N55Q removing the glycosylation site
- effect of the mutation on affinity [12]: no effect on affinity

B1: gH6: CDR-grafted 5/44 heavy chain graft gH6 (SEQ ID NO: 26) (antibody, V domains shown)
VH: EVQLVQSGAEVKKPGASVKVSCKASGYRFTNYWIHWVRQAPGQGLEWIGGINPGNNYATYRRKFQGRATLTADTSTSTVYMELSSLRSEDTAVYYCTREGYGNYGAWFAYWGQGTLVTVSS
modifications: gH6
- binding activity in competition with mouse 5/44 [13]: did not appear to have affected binding

B2: gH7: CDR-grafted 5/44 heavy chain graft gH7 (SEQ ID NO: 27) (antibody, V domains shown)
VH: EVQLVQSGAEVKKPGASVKVSCKASGYRFTNYWIHWVRQAPGQGLEWIGGINPGNNYATYRRKFQGRVTMTADTSTSTVYMELSSLRSEDTAVYYCTREGYGNYGAWFAYWGQGTLVTVSS
modifications: gH7
- binding activity in competition with mouse 5/44 [13]: did not appear to have affected binding
